{"source": "paper PMC5720837", "about": "“Identification of a 4-fluorobenzyl L-valinate amide benzoxaborole (AN11736) as a potential development candidate for the treatment of Animal African Trypanosomiasis (AAT)” (Bioorganic & Medicinal Chemistry Letters, 2018)", "data": [{"system": "Trypanosoma vivax (T. vivax STIB719/ILRAD 560 strain), bloodstream form", "test": "Whole cell Alamar Blue assay, T. vivax (48 h ex vivo)", "format": "cell-based", "settings": "Trypanosoma vivax; T. vivax STIB719/ILRAD 560, 48 h ex vivo Alamar Blue assay", "procedure": "(§1) Activity of compounds 1–71 against T. congolense and T. vivax was determined using the whole cell assays as described ^6 and their IC50 values are summarized in Table 1.\n(§2) [6] Assay methods for determination of T. c. and T. v. […] Culture media consisted of complete HMI-9 (IMDM) with 20% bovine serum. To ensure log growth phase, trypanosomes were sub-cultured at appropriate dilutions every 2–3 days. Bloodstream form Trypanosoma vivax (T. vivax) cannot be cultured axenically, therefore trypanosomes (T. vivax STIB719/ILRAD 560 strain) were harvested from a highly parasitemia mouse via cardiac puncture and used directly in the ex vivo drug sensitivity assay on the same day. […] Parasite starting concentrations of 2 × 10^5 (T. c.) and 4 × 10^5 (T. v.) were calculated respectively, using a cell analyzer system or haemo-cytometer, followed by quantification at 536 nm excitation and 588 nm emission wavelengths using a […] reader. Test compounds were prepared as 10 mg/mL DMSO stocks for each assay run. Compounds were assayed in at least three separate, independent test runs and an 11-point dilution curve was used to determine the IC50 values. Data points were averaged to generate sigmoidal dose-response curves and IC50 values were determined using Softmax Pro 5.2 software.", "units": {"IC50": "nM"}, "values": [{"smiles": "Cc1c(C(=O)N[C@H](C(=O)OCc2cccc(F)c2)C(C)C)ccc2c1B(O)OC2", "note": "[Compound 7]", "IC50": 0.1}, {"smiles": "Cc1c(C(=O)N[C@H](C(=O)OCc2cc(F)cc(F)c2)C(C)C)ccc2c1B(O)OC2", "note": "[Compound 9]", "IC50": 0.1}, {"smiles": "Cc1c(C(=O)N[C@H](C(=O)OCc2cccc(C(F)(F)F)c2)C(C)C)ccc2c1B(O)OC2", "note": "[Compound 10]", "IC50": 2.7}, {"smiles": "Cc1c(C(=O)N[C@H](C(=O)OCc2ccc(C(F)(F)F)cc2)C(C)C)ccc2c1B(O)OC2", "note": "[Compound 11]", "IC50": 24}, {"smiles": "Cc1c(C(=O)N[C@H](C(=O)OCc2cccc(OC(F)(F)F)c2)C(C)C)ccc2c1B(O)OC2", "note": "[Compound 12]", "IC50": 19}, {"smiles": "Cc1c(C(=O)N[C@H](C(=O)OCc2ccc(OC(F)(F)F)cc2)C(C)C)ccc2c1B(O)OC2", "note": "[Compound 13]", "IC50": 0.04}, {"smiles": "Cc1c(C(=O)N[C@H](C(=O)OCc2ccc(C#N)cc2)C(C)C)ccc2c1B(O)OC2", "note": "[Compound 15]", "IC50": 0.05}, {"smiles": "CC(C)[C@H](NC(=O)c1ccc2c(c1C(F)(F)F)B(O)OC2)C(=O)OCc1ccc(F)cc1", "note": "[Compound 23]", "IC50": 51}, {"smiles": "CCCc1c(C(=O)N[C@H](C(=O)OCc2ccc(F)cc2)C(C)C)ccc2c1B(O)OC2", "note": "[Compound 25]", "IC50": 4.7}, {"smiles": "CC(C)[C@H](NC(=O)c1ccc2c(c1C1CC1)B(O)OC2)C(=O)OCc1ccc(F)cc1", "note": "[Compound 27]", "IC50": 0.71}]}, {"system": "Trypanosoma congolense (T. congolense IL-3000 strain), bloodstream form", "test": "Whole cell Alamar Blue assay, T. congolense (72 h in vitro)", "format": "cell-based", "settings": "Trypanosoma congolense, 72 h, T. congolense IL-3000, 72 h in vitro Alamar Blue assay", "procedure": "as §1, §2", "units": {"IC50": "nM"}, "values": [{"smiles": "Cc1c(C(=O)N[C@H](C(=O)OCc2cccc(F)c2)C(C)C)ccc2c1B(O)OC2", "note": "[Compound 7]", "IC50": 0.59}, {"smiles": "Cc1c(C(=O)N[C@H](C(=O)OCc2cc(F)cc(F)c2)C(C)C)ccc2c1B(O)OC2", "note": "[Compound 9]", "IC50": 0.18}, {"smiles": "Cc1c(C(=O)N[C@H](C(=O)OCc2cccc(C(F)(F)F)c2)C(C)C)ccc2c1B(O)OC2", "note": "[Compound 10]", "IC50": 0.22}, {"smiles": "Cc1c(C(=O)N[C@H](C(=O)OCc2ccc(C(F)(F)F)cc2)C(C)C)ccc2c1B(O)OC2", "note": "[Compound 11]", "IC50": 0.16}, {"smiles": "Cc1c(C(=O)N[C@H](C(=O)OCc2cccc(OC(F)(F)F)c2)C(C)C)ccc2c1B(O)OC2", "note": "[Compound 12]", "IC50": 0.31}, {"smiles": "Cc1c(C(=O)N[C@H](C(=O)OCc2ccc(OC(F)(F)F)cc2)C(C)C)ccc2c1B(O)OC2", "note": "[Compound 13]", "IC50": 0.23}, {"smiles": "Cc1c(C(=O)N[C@H](C(=O)OCc2ccc(C#N)cc2)C(C)C)ccc2c1B(O)OC2", "note": "[Compound 15]", "IC50": 0.15}, {"smiles": "CC(C)[C@H](NC(=O)c1ccc2c(c1C(F)(F)F)B(O)OC2)C(=O)OCc1ccc(F)cc1", "note": "[Compound 23]", "IC50": 37}, {"smiles": "CCCc1c(C(=O)N[C@H](C(=O)OCc2ccc(F)cc2)C(C)C)ccc2c1B(O)OC2", "note": "[Compound 25]", "IC50": 3}, {"smiles": "CC(C)[C@H](NC(=O)c1ccc2c(c1C1CC1)B(O)OC2)C(=O)OCc1ccc(F)cc1", "note": "[Compound 27]", "IC50": 3.9}]}]}
